In patent publication US10052340B2 (XIAMEN UNIVERSITY, priority 2012, dated 2018):

Experiments:
[1] = system: KK-Ay mice; assay: Mouse trial, KK-Ay diabetes and obesity model mice fed with high-fat diet; format: in vivo; settings: for cholesterol in high density lipoprotein in serum / cholesterol in low density/very low density lipoprotein in serum / serum saccharides (glucose) level: 1.3 mg/kg i.p. daily, 14 days; for serum cholesterol / serum triglycerides: ivermectin/derivatives 1.3 mg/kg
Excerpt: In order to detect the efficacy of abamectin/avermectin, ivermectin and the derivative doramectin in the body of a diabetes and obesity mouse model, we choose diabetes and obesity mouse model mice, KK-Ay mice, as the experimental subject.

[2] = system: wild-type C57BL/6J mice; assay: Mouse trial, wild-type mice fed with high-fat diet; settings: high-fat diet, 1.3 mg/kg i.p. daily, 14 days
Procedure: (§1) Wild-type C57BL/6J mice of 9-10 weeks old, and FXR gene deletion homozygous mice (FXR^−/−) and diabetes and obesity mouse model mice (KK-Ay) with the same background are used, fed with high-fat diet (Research Diets, D12492), with free access to water, in SPF grade animal room in experimental animal center, Xiamen University. […] Intraperitoneal injection is performed one time at 9 o'clock every morning, continued for 14 days, and the mice are measured for body weight and the food intake every two days. At the end of 14 days, the mice are provided with free access to water, and after being hungry for 6 h, the mouse body weights are measured, and the percentage of the final body weight relative to the initial body weight before the treatment of the injection trial indicates the change of mouse body weight. Then blood is sampled from the eye balls, and sera are obtained by separation. The components in serum are detected by the following kits respectively: sugar-oxidase method (Beijing Applygen); insulin (Crystal Chem. Inc., USA); total cholesterol and cholesterol in high and low density lipoprotein (Bioassay Systems, USA); triglyceride (Beijing Applygen and WAKO Chemicals Inc., Japan); free fatty acids (Bioassay Systems, USA); and aspartate aminotransferase and alanine aminotransferase (Biosino Bio-technology and Science Inc., Beijing, China). Mouse liver is taken, a part of which is fixed with paraformaldehyde, and embedded with paraffin, sectioned, and stained with hematoxylin and eosin, and a part of which is cryopreserved with liquid nitrogen for use in extracting RNA for measuring gene expression with fluorescence quantitative PCR.

[3] = system: FXR gene deletion homozygous mice (FXR−/−); assay: Mouse trial, FXR knockout mice fed with high-fat diet; format: in vivo; settings: 1.3 mg/kg i.p. daily, 14 days
Procedure: as §1

[4] = i.p. daily 14 days, GW4064 30 mg/kg

SMILES	cholesterol in high density lipoprotein in serum [1]	cholesterol in low density/very low density lipoprotein in serum [1]	serum saccharides (glucose) level [1]	serum cholesterol [1, 4]	serum triglycerides [1, 4]	cholesterol level in high density lipoprotein [2]	cholesterol levels in low density and very low density lipoprotein [2]	serum cholesterol level [2]	serum glucose level [2]	serum triglyceride (Tg) level [2]	serum cholesterol level [3]	serum glucose level [3]	serum free fatty acids ([1]; i.p. daily 14 days, ivermectin 1.3 mg/kg, GW4064 30 mg/kg)
CCC(C)[C@H]1O[C@]2(C=C[C@@H]1C)C[C@@H]1C[C@@H](C/C=C(\C)[C@@H](O[C@H]3C[C@H](OC)[C@@H](O[C@H]4C[C@@H](OC)[C@H](O)[C@@H](C)O4)[C@H](C)O3)[C@@H](C)/C=C/C=C3\CO[C@@H]4[C@H](O)C(C)=C[C@@H](C(=O)O1)[C@]34O)O2 (stereo partly shown) [abamectin/avermectin]	significantly decrease	significantly decrease	significantly decrease	decreased	significantly decrease	significantly downregulated	downregulated	significantly decreases	significantly decreases	significantly decrease			
CO[C@H]1C[C@H](O[C@H]2[C@H](C)O[C@@H](O[C@@H]3/C(C)=C/C[C@@H]4C[C@@H](C[C@]5(C=C[C@H](C)[C@@H](C6CCCCC6)O5)O4)OC(=O)[C@@H]4C=C(C)[C@@H](O)[C@H]5OC/C(=C\C=C\[C@@H]3C)[C@]54O)C[C@@H]2OC)O[C@@H](C)[C@@H]1O [doramectin]	significantly decrease	significantly decrease	significantly decrease	decreased	significantly decrease	significantly downregulated	downregulated	significantly decreases	significantly decreases	significantly decrease	not producing any significant change	not producing any significant change	
CC(C)c1onc(-c2c(Cl)cccc2Cl)c1COc1ccc(/C=C/c2cccc(C(=O)O)c2)c(Cl)c1 [GW4064]				significantly decrease	significantly decrease								significantly decrease
